Patent US20140039044A1, “Hydroxylated Polymethoxyflavone Compositions” (WLLGEN, INC., priority 2006, published 2014)
Read-outs that look alike come from different tables or passages of the source.

Experiments:
Type in all cases: cell-based, human
[1] = test system: HL-60 cells; assay: Cell cycle distribution by flow cytometry; conditions: for Cell Cycle Distribution G0/G1 / Cell Cycle Distribution G2/M / Cell Cycle Distribution S: Table 10
How it was run: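 HL-60 cells were treated for 24 h with compound at 5, 10, 25, 50 or 100 μM, or with DMSO. Cells were then ethanol-fixed, treated with Triton X-100/RNase and stained with propidium iodide. DNA content was measured by flow cytometry to give cell-cycle phase distribution.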

[2] = test system: COLO205 cells; assay: Cell cycle distribution by flow cytometry; conditions: COLO205 cells; for Cell Cycle Distribution G0/G1 / Cell Cycle Distribution G2/M / Cell Cycle Distribution S: 24 h, Table 12
How it was run: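 Human cancer cells (2×10^5 per dish) exposed 24 h to compound at 5–100 μM, or DMSO. Cells ethanol-fixed at −20° C overnight, RNase/Triton-treated at 37° C for 30 min, then stained with propidium iodide. DNA content read by FACScan flow cytometry to give phase distribution.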

[3] = test system: AGS cells; assay: Cell survival assay (antiproliferative IC50); conditions: AGS cells, read-out: Antiproliferative IC50
[4] = test system: HL-60 cells; assay: Cell survival assay (antiproliferative IC50); conditions: HL-60 cells, read-out: Antiproliferative IC50
[5] = test system: COLO205 cells; assay: Cell survival assay (antiproliferative IC50); conditions: COLO205 cells, read-out: Antiproliferative IC50
[6] = test system: HT-29 cells; assay: Apoptotic ratio by propidium iodide flow cytometry (AC50); conditions: read-out: Apoptosis-inducing AC50
How it was run: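 HT-29 cells (2×10^5) were treated with compound for 24 h, then fixed in ice-cold ethanol overnight and treated with Triton X-100/RNase at 37 °C for 30 min. They were stained with propidium iodide (50 μg/mL solution) on ice for 30 min. The apoptotic fraction was measured from PI-DNA fluorescence by flow cytometry, and AC50 was reported.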

| Structure (SMILES) | Cell Cycle Distribution G0/G1 ([1]; 5 μM, 24 h) | Cell Cycle Distribution G2/M ([1]; 5 μM, 24 h) | Cell Cycle Distribution S ([1]; 5 μM, 24 h) | Cell Cycle Distribution G0/G1 ([1]; 10 μM, 24 h) | Cell Cycle Distribution G2/M ([1]; 10 μM, 24 h) | Cell Cycle Distribution S ([1]; 10 μM, 24 h) | Cell Cycle Distribution G0/G1 ([1]; 25 μM, 24 h) | Cell Cycle Distribution G2/M ([1]; 25 μM, 24 h) | Cell Cycle Distribution S ([1]; 25 μM, 24 h) | Cell Cycle Distribution G0/G1 ([1]; 50 μM, 24 h) | Cell Cycle Distribution G2/M ([1]; 50 μM, 24 h) | Cell Cycle Distribution S ([1]; 50 μM, 24 h) | Cell Cycle Distribution G0/G1 ([1]; 100 μM, 24 h) | Cell Cycle Distribution G2/M ([1]; 100 μM, 24 h) | Cell Cycle Distribution S ([1]; 100 μM, 24 h) | Cell Cycle Distribution G0/G1 ([2]; 5 μM) | Cell Cycle Distribution G2/M ([2]; 5 μM) | Cell Cycle Distribution S ([2]; 5 μM) | Cell Cycle Distribution G0/G1 ([2]; 10 μM) | Cell Cycle Distribution G2/M ([2]; 10 μM) | also measured |
| --- | --- | --- | --- | --- | --- | --- | --- | --- | --- | --- | --- | --- | --- | --- | --- | --- | --- | --- | --- | --- | --- |
| COc1ccc(-c2cc(=O)c3c(O)c(OC)c(OC)c(OC)c3o2)cc1O [Compound K, 5,3′-dihydroxy-6,7,8,4′-tetramethoxyflavone] | 0.56 ± 0.76 | 35.91 ± 0.11 | 60.54 ± 4.90 | 0.38 ± 0.06 | 54.41 ± 4.77 | 45.22 ± 4.83 | 0.68 ± 0.42 | 49.12 ± 2.64 | 50.23 ± 3.08 | 2.63 ± 2.50 | 45.05 ± 0.01 | 52.33 ± 2.51 | 3.18 ± 2.62 | 30.61 ± 4.64 | 66.21 ± 1.72 | 57.68 ± 0.42 | 7.08 ± 0.20 | 34.52 ± 0.21 | 65.81 ± 0.83 | 1.75 ± 0.47 | G2/M cell cycle arrest, in words [1]: strongly potentiated the G2/M cell cycle arrest; G2/M cell cycle arrest, in words [2]: strongly potentiated the G2/M cell cycle arrest; Cell Cycle Distribution S ([2]; 10 μM): 32.44 ± 2.28; Cell Cycle Distribution G0/G1 ([2]; 25 μM): 66.63 ± 1.51; Cell Cycle Distribution G2/M ([2]; 25 μM): 13.31 ± 1.91; Cell Cycle Distribution S ([2]; 25 μM): 20.06 ± 0.40; Cell Cycle Distribution G0/G1 ([2]; 50 μM): 42.30 ± 1.12; Cell Cycle Distribution G2/M ([2]; 50 μM): 23.42 ± 0.83; Cell Cycle Distribution S ([2]; 50 μM): 34.29 ± 0.29; Cell Cycle Distribution G0/G1 ([2]; 100 μM): 43.58 ± 2.29; Cell Cycle Distribution G2/M ([2]; 100 μM): 22.85 ± 2.96; Cell Cycle Distribution S ([2]; 100 μM): 33.57 ± 0.67; IC50 ([3]; Homo sapiens): 9.61 µM; IC50 ([4]; Homo sapiens): 10 µM; IC50 ([5]; Homo sapiens, COLO 205): 11.2 µM; AC50 ([6]; Homo sapiens): > 100 µM |
| COc1ccc(-c2oc3c(OC)c(OC)c(OC)c(OC)c3c(=O)c2O)cc1OC [B, 3-hydroxy-5,6,7,8,3′,4-hexamethoxyflavone] | 42.63 ± 0.85 | 9.99 ± 1.70 | 47.38 ± 0.42 | 40.76 ± 0.28 | 0.23 ± 0.42 | 59.01 ± 0.78 | 47.74 ± 0.71 | 0.00 ± 0.64 | 52.26 ± 0.64 | 41.48 ± 0.85 | 0.00 ± 0.57 | 58.52 ± 0.42 | 49.63 ± 0.28 | 0.51 ± 0.64 | 43.86 ± 0.21 | 63.59 ± 0.48 | 0.89 ± 0.94 | 35.53 ± 0.46 | 63.12 ± 0.20 | 5.63 ± 0.28 | Cell Cycle Distribution S ([2]; 10 μM): 31.25 ± 0.48; Cell Cycle Distribution G0/G1 ([2]; 25 μM): 64.96 ± 0.99; Cell Cycle Distribution G2/M ([2]; 25 μM): 0.41 ± 0.31; Cell Cycle Distribution S ([2]; 25 μM): 34.63 ± 0.68; Cell Cycle Distribution G0/G1 ([2]; 50 μM): 63.32 ± 0.52; Cell Cycle Distribution G2/M ([2]; 50 μM): 0.31 ± 0.11; Cell Cycle Distribution S ([2]; 50 μM): 36.39 ± 0.62; Cell Cycle Distribution G0/G1 ([2]; 100 μM): 78.51 ± 0.63; Cell Cycle Distribution G2/M ([2]; 100 μM): 3.99 ± 0.95; Cell Cycle Distribution S ([2]; 100 μM): 17.51 ± 1.58; IC50 [3]: 72.3 ± 7.91 µM; IC50 [4]: > 100 µM; IC50 [5]: 23.3 ± 1.56 µM; AC50 [6]: > 100 µM |
| COc1cc(-c2cc(=O)c3c(OC)c(OC)c(OC)c(OC)c3o2)cc(OC)c1OC [F, 5,6,7,8,3′,4′,5′-heptamethoxyflavone, reference compound] | 42.11 ± 0.37 | 10.56 ± 1.16 | 47.34 ± 1.53 | 48.35 ± 1.83 | 10.59 ± 1.46 | 41.07 ± 0.37 | 57.82 ± 1.51 | 7.28 ± 1.54 | 34.90 ± 0.03 | 60.39 ± 0.23 | 8.44 ± 0.54 | 31.18 ± 0.30 | 63.66 ± 2.33 | 4.92 ± 0.46 | 31.43 ± 1.87 | 68.30 ± 1.36 | 8.71 ± 0.55 | 23.00 ± 0.80 | 71.96 ± 0.24 | 8.38 ± 0.43 | Cell cycle arrest, in words ([1]; 25-100 μM, 24 h): significant G1 arrest; Cell Cycle Distribution S ([2]; 10 μM): 19.67 ± 0.67; Cell Cycle Distribution G0/G1 ([2]; 25 μM): 72.22 ± 0.54; Cell Cycle Distribution G2/M ([2]; 25 μM): 9.80 ± 0.20; Cell Cycle Distribution S ([2]; 25 μM): 17.98 ± 0.74; Cell Cycle Distribution G0/G1 ([2]; 50 μM): 76.39 ± 0.85; Cell Cycle Distribution G2/M ([2]; 50 μM): 8.02 ± 0.50; Cell Cycle Distribution S ([2]; 50 μM): 15.60 ± 1.35; Cell Cycle Distribution G0/G1 ([2]; 100 μM): 78.64 ± 0.34; Cell Cycle Distribution G2/M ([2]; 100 μM): 8.65 ± 0.19; Cell Cycle Distribution S ([2]; 100 μM): 12.71 ± 0.52; IC50 ([3]; Homo sapiens): > 100 µM; IC50 ([4]; Homo sapiens): 47 ± 4 µM; IC50 ([5]; Homo sapiens, COLO 205): 92.6 ± 15 µM; AC50 ([6]; Homo sapiens): > 100 µM |
